Columns and labels:
[1] = set-up: method as in Wang et al., 2008; Feng et al., 2017; details: alkaline and light and heat conditions; ref Wang et al., 2008; Feng et al., 2017; cited from earlier work
[2] = Pharmacokinetic study in rat plasma after oral administration of QJYQ (UHPLC-sMRM); assay type: in vivo, Sprague-Dawley rats; details: male, Sprague-Dawley, rat plasma, oral QJYQ 3.15 g/kg; for Tmax: rat, plasma, po, 3.15 g/kg, read-out: Tmax; for Tmax / half-life / AUC(0-t) / AUC(0-inf) / Cmax / MRT inf / MRT last: n = 8, mean ± SD; for AUC(0-t): read-out: AUC(0-t); for AUC(0-inf): read-out: AUC(0-∞); for Cmax: read-out: Cmax; for MRT inf: read-out: MRT (0-∞); for MRT last: read-out: MRT(0-t)
Procedure: Exion LC AD tandem Blueline 3500 triple quadrupole mass spectrometer (AB SCIEX, Framingham, MA, United States) was used to thirty-three compounds in rat plasma. […] The whole detailed parameters of sMRM were obtained in Supplementary Table S1.
Rat plasma (100 μL) was mixed with 10% formic acid (10 μL) and vortexed for 1 min at room temperature. ISs (10 μL) and methanol/acetonitrile (1/1, v/v) (400 μL) were added and vortexed for 5 min, then centrifuged for 10 min at 14,000 rpm and 4°C. The transported supernatant was condensed to dryness under the flow of nitrogen gas. The dried residue was reconstituted with 70% methanol (100 μL) by vortex-mixing for 5 min and centrifuging at 14,000 rpm for 10 min. Last, 2 μL of the solution were injected into the UHPLC-sMRM system.
The pharmacokinetic study was approved by the Animal Ethics Committee of Tianjin University of Traditional Chinese Medicine (TCM-LAEC2021228). Ten male Sprague-Dawley rats (weight 220–240 g) was kept at the animal center of Tianjin University of Traditional Chinese Medicine (Tianjin, China). […] The sample was transferred right away following a 10 min period of centrifugation at 7000 rpm and 4°C. All plasma samples were frozen and stored at −80°C.
All the pharmacokinetic parameters were calculated using the DAS 1.0 software (Drug and Statistics 1.0, Medical College of Wannan, China). Pharmacokinetic parameters include the maximum drug concentration in plasma (Cmax), the time to achieve maximum drug concentration (Tmax), the area under the plasma concentration-time curve (AUC), elimination half-life (T1/2), and mean residence time (MRT). The pharmacokinetic parameters were computed using the non-compartmental model. All data are expressed as mean ± standard deviation (SD). GraphPad Prism 8.0 (GraphPad Software Inc., La Jolla, CA, United States) software was used to draw the drug-time curve.

[3] = Stability of the working solution (4°C for 1 month); assay type: physicochemical
Procedure: (§1) The stability of analytes in plasma was evaluated by analyzing 4 QC samples (n = 6). The stability was included auto-sampler stability (keeping the sample in auto-sampler for 24 h), three times of freeze-thaw cycles stability (freezing cycle at −80°C, thawing cycle at room temperature), room temperature stability (storing samples at room temperature for 24 h), long-term stability (storing samples at −80°C for 1 month). […] Accompanying curve was established when testing the sample, calculate and compare the ratio of the actual measured concentration to the theoretical concentration, expressed in accuracy and RSD.

[4] = Stability of analytes in rat plasma (auto-sampler, freeze-thaw, room temperature, long-term); details: for Autosampler for 24 h Accuracy (%): autosampler 24 h; for Room temperature for 24 h Accuracy (%): room temperature 24 h; for −80°C for 1month Accuracy (%): −80°C 1 month; for Freeze thaw cycles Accuracy (%): three freeze-thaw cycles
Procedure: as §1

SMILES: O=C(O)[C@H]1O[C@@H](Oc2cc3oc(-c4ccccc4)cc(=O)c3c(O)c2O)[C@H](O)[C@@H](O)[C@@H]1O [baicalin]
- stability [1]: not stable
- Tmax [2]: 7.22 ± 1.41 h
- MRT ([2]; MRT type not specified, read-out: MRT): > 8 h
- half-life [2]: 3.09 ± 0.87 h
- AUC(0-t) [2]: 49300 ± 24900 ng·h/mL
- AUC(0-inf) [2]: 49700 ± 24900 ng·h/mL
- Cmax [2]: 4520 ± 3140 ng/mL
- MRT inf [2]: 8.62 ± 0.53 h
- MRT last [2]: 8.45 ± 0.58 h
- Working solution Accuracy (%) ([3]; 15.6 ng/mL): 83.1%
- Working solution Accuracy (%) ([3]; 125 ng/mL): 105.0%
- Working solution Accuracy (%) ([3]; 1000 ng/mL): 93.9%
- Working solution Accuracy (%) ([3]; 5000 ng/mL): 87.7%
- Autosampler for 24 h Accuracy (%) ([4]; 15.6 ng/mL): 111.0%
- Room temperature for 24 h Accuracy (%) ([4]; 15.6 ng/mL): 98.5%
- −80°C for 1month Accuracy (%) ([4]; 15.6 ng/mL): 98.9%
- Autosampler for 24 h Accuracy (%) ([4]; 125 ng/mL): 113.0%
- Room temperature for 24 h Accuracy (%) ([4]; 125 ng/mL): 104.0%
- Freeze thaw cycles Accuracy (%) ([4]; 125 ng/mL): 89.3%
- −80°C for 1month Accuracy (%) ([4]; 125 ng/mL): 98.1%
- Autosampler for 24 h Accuracy (%) ([4]; 1000 ng/mL): 94.2%
- Room temperature for 24 h Accuracy (%) ([4]; 1000 ng/mL): 96.8%
- Freeze thaw cycles Accuracy (%) ([4]; 1000 ng/mL): 89.7%
- −80°C for 1month Accuracy (%) ([4]; 1000 ng/mL): 91.4%
- Autosampler for 24 h Accuracy (%) ([4]; 5000 ng/mL): 86.8%
- Room temperature for 24 h Accuracy (%) ([4]; 5000 ng/mL): 89.0%
- Freeze thaw cycles Accuracy (%) ([4]; 5000 ng/mL): 111.0%
- −80°C for 1month Accuracy (%) ([4]; 5000 ng/mL): 90.3%

SMILES: O=C(O)c1ccc(O)c(O)c1 [protocatechuic acid]
- Tmax [2]: < 0.5 h
- half-life [2]: 2.33 ± 0.52 h
- AUC(0-t) [2]: 40.8 ± 10.9 ng·h/mL
- AUC(0-inf) [2]: 40.9 ± 17.3 ng·h/mL
- Cmax [2]: 6.79 ± 4.35 ng/mL
- MRT inf [2]: 5.32 ± 1.53 h
- MRT last [2]: 5.3 ± 1.02 h
- Working solution Accuracy (%) ([3]; 1.56 ng/mL): 82.3%
- Working solution Accuracy (%) ([3]; 12.5 ng/mL): 104.0%
- Working solution Accuracy (%) ([3]; 100 ng/mL): 92.6%
- Working solution Accuracy (%) ([3]; 500 ng/mL): 88.9%
- Autosampler for 24 h Accuracy (%) ([4]; 1.56 ng/mL): 103.0%
- Room temperature for 24 h Accuracy (%) ([4]; 1.56 ng/mL): 110.0%
- Freeze thaw cycles Accuracy (%) ([4]; 1.56 ng/mL): 103.0%
- −80°C for 1month Accuracy (%) ([4]; 1.56 ng/mL): 80.4%
- Autosampler for 24 h Accuracy (%) ([4]; 12.5 ng/mL): 86.0%
- Room temperature for 24 h Accuracy (%) ([4]; 12.5 ng/mL): 91.0%
- −80°C for 1month Accuracy (%) ([4]; 12.5 ng/mL): 114.0%
- Autosampler for 24 h Accuracy (%) ([4]; 100 ng/mL): 98.5%
- Room temperature for 24 h Accuracy (%) ([4]; 100 ng/mL): 106.0%
- Freeze thaw cycles Accuracy (%) ([4]; 100 ng/mL): 90.0%
- −80°C for 1month Accuracy (%) ([4]; 100 ng/mL): 100.0%
- Autosampler for 24 h Accuracy (%) ([4]; 500 ng/mL): 85.2%
- Room temperature for 24 h Accuracy (%) ([4]; 500 ng/mL): 85.3%
- Freeze thaw cycles Accuracy (%) ([4]; 500 ng/mL): 89.0%
- −80°C for 1month Accuracy (%) ([4]; 500 ng/mL): 91.2%
